In this experiment the test system is CD2F1 mice, L1210 leukemia ip, survival T/C. Kind of experiment: NCI In Vivo Anticancer Drug Screen. Data for tumor model L1210 Leukemia (intraperitoneal) in CD2F1 (CDF1) mice. The conditions noted are these: higher = longer survival. In short, it runs like this:
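Read-out first: treated-group measurement over vehicle-control measurement, expressed as a ratio. Animals bore a transplanted tumor line and were dosed with compound or vehicle.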

The mark [1] stands for this setting: endpoint: mean survival time, dose: 50.0 mg/kg/injection, schedule: Q01DX009 (ip), vehicle: saline.
Where [2] appears, read: endpoint: mean survival time, dose: 100.0 mg/kg/injection, schedule: Q01DX009 (ip), vehicle: saline.
Setting [3] is: endpoint: mean survival time, dose: 100.0 mg/kg/injection, schedule: Q01DX009 (ip), vehicle: saline with Tween-80.
Setting [4] is: endpoint: mean survival time, dose: 200.0 mg/kg/injection, schedule: Q01DX009 (ip), vehicle: saline with Tween-80.
Where [5] appears, read: endpoint: mean survival time, dose: 75.0 mg/kg/injection, schedule: Q01DX001 (ip), vehicle: saline.
Where [6] appears, read: endpoint: mean survival time, dose: 150.0 mg/kg/injection, schedule: Q01DX001 (ip), vehicle: saline.
Where [7] appears, read: endpoint: mean survival time, dose: 200.0 mg/kg/injection, schedule: Q04DX003 (ip), vehicle: saline with Tween-80.
Setting [8] is: endpoint: mean survival time, dose: 400.0 mg/kg/injection, schedule: Q04DX003 (ip), vehicle: saline with Tween-80.
Where [9] appears, read: endpoint: mean survival time, dose: 100.0 mg/kg/injection, schedule: Q04DX003 (ip), vehicle: saline with Tween-80.

Several values for one entry are separate records, joined by “and”; a condition that tells them apart may be missing. Equal entries are not always repeated. Toxic doses and inconclusive results are not listed.

With `O=C(O)C1CSCN1` (centres undefined), the T/C (endpoint: mean survival time, dose: 3.12 mg/kg/injection, schedule: Q01DX009 (ip), vehicle: saline) was 97 % of control; the T/C (endpoint: mean survival time, dose: 3.12 mg/kg/injection, schedule: Q01DX009 (ip), vehicle: water) is 101 % of control; the T/C (endpoint: mean survival time, dose: 6.25 mg/kg/injection, schedule: Q01DX009 (ip), vehicle: saline) is 98 % of control; the T/C (endpoint: mean survival time, dose: 6.25 mg/kg/injection, schedule: Q01DX009 (ip), vehicle: water) is 93 % of control; the T/C (endpoint: mean survival time, dose: 12.5 mg/kg/injection, schedule: Q01DX009 (ip), vehicle: saline) was 96 % of control; the T/C (endpoint: mean survival time, dose: 12.5 mg/kg/injection, schedule: Q01DX009 (ip), vehicle: water) was 102 % of control. The T/C (endpoint: mean survival time, dose: 25.0 mg/kg/injection, schedule: Q01DX009 (ip), vehicle: saline) is 93 % of control; the T/C (endpoint: mean survival time, dose: 25.0 mg/kg/injection, schedule: Q01DX009 (ip), vehicle: water) was 98 % of control; the T/C under setting [1] was 100 % of control; the T/C (endpoint: mean survival time, dose: 50.0 mg/kg/injection, schedule: Q01DX009 (ip), vehicle: water) was 95 % of control; the T/C under setting [2] was 95 % of control; the T/C (endpoint: mean survival time, dose: 100.0 mg/kg/injection, schedule: Q01DX009 (ip), vehicle: water) was 95 % of control. In addition, the T/C (endpoint: median survival time, dose: 3.12 mg/kg/injection, schedule: Q01DX009 (ip), vehicle: Klucel (hydroxypropylcellulose) (HPC)) is 93 % of control; the T/C (endpoint: median survival time, dose: 6.25 mg/kg/injection, schedule: Q01DX009 (ip), vehicle: Klucel (hydroxypropylcellulose) (HPC)) is 95 % of control; the T/C (endpoint: median survival time, dose: 12.5 mg/kg/injection, schedule: Q01DX009 (ip), vehicle: Klucel (hydroxypropylcellulose) (HPC)) was 102 % of control; the T/C (endpoint: median survival time, dose: 15.0 mg/kg/injection, schedule: Q01DX005 (ip), vehicle: saline) was 108 % of control; the T/C (endpoint: median survival time, dose: 25.0 mg/kg/injection, schedule: Q01DX009 (ip), vehicle: Klucel (hydroxypropylcellulose) (HPC)) was 91 % of control; the T/C (endpoint: median survival time, dose: 50.0 mg/kg/injection, schedule: Q01DX005 (ip), vehicle: saline) was 101 % of control. Moreover, the T/C was 95 % of control (endpoint: median survival time, dose: 50.0 mg/kg/injection, schedule: Q01DX009 (ip), vehicle: Klucel (hydroxypropylcellulose) (HPC)); 103 % of control (endpoint: median survival time, dose: 60.0 mg/kg/injection, schedule: Q01DX005 (ip), vehicle: saline); 91 % of control (endpoint: median survival time, dose: 100.0 mg/kg/injection, schedule: Q01DX009 (ip), vehicle: Klucel (hydroxypropylcellulose) (HPC)); 100 % of control (endpoint: median survival time, dose: 120.0 mg/kg/injection, schedule: Q01DX005 (ip), vehicle: saline).

`O=S1OCC2(CO1)COS(=O)OC2` (centres undefined): the T/C is, setting by setting: (endpoint: mean survival time, dose: 3.13 mg/kg/injection, schedule: Q01DX001 (ip), vehicle: saline with Tween-80) 108 % of control; (endpoint: mean survival time, dose: 6.25 mg/kg/injection, schedule: Q01DX001 (ip), vehicle: saline with Tween-80) 100 % of control.

As to `O/N=C1/C2CCC(C2)C1C(O)(C(F)(F)F)C(F)(F)F` (centres undefined), the T/C is, setting by setting: (endpoint: mean survival time, dose: 50.0 mg/kg/injection, schedule: Q01DX009 (ip), vehicle: saline with Tween-80) 93 % of control; (endpoint: mean survival time, dose: 100.0 mg/kg/injection, schedule: Q01DX001 (ip), vehicle: saline with Tween-80) 102 % of control; under setting [3], 101 % of control; (endpoint: mean survival time, dose: 200.0 mg/kg/injection, schedule: Q01DX001 (ip), vehicle: saline with Tween-80) 92 % of control; under setting [4], 89 % of control.

Regarding `Nc1n[nH]c2ccccc12`, the T/C reads like this: (endpoint: median survival time, dose: 25.0 mg/kg/injection, schedule: Q01DX009 (ip), vehicle: acid diluted with saline) 101 % of control and 103 % of control and 105 % of control; (endpoint: median survival time, dose: 50.0 mg/kg/injection, schedule: Q01DX009 (ip), vehicle: acid diluted with saline) 101 % of control and 108 % of control and 111 % of control; (endpoint: median survival time, dose: 100.0 mg/kg/injection, schedule: Q01DX009 (ip), vehicle: acid diluted with saline) 107 % of control; (endpoint: median survival time, dose: 200.0 mg/kg/injection, schedule: Q01DX009 (ip), vehicle: acid diluted with saline) 154 % of control and 158 % of control; (endpoint: median survival time, dose: 400.0 mg/kg/injection, schedule: Q01DX009 (ip), vehicle: acid diluted with saline) 158 % of control.

`O=C(O)C(F)(F)C(F)(F)C(F)(F)C(F)=C(F)F`: the T/C reads like this: under setting [5], 103 % of control; under setting [6], 101 % of control.

Consider `c1ccc(Oc2ccc(-c3ccc(Oc4ccccc4)cc3)cc2)cc1`, for which the T/C runs as follows: under setting [7], 95 % of control; under setting [8], 91 % of control.

Turning to `CC(=O)Nc1nc(C)cs1`, the T/C runs as follows: under setting [5], 98 % of control; under setting [6], 97 % of control; (endpoint: mean survival time, dose: 300.0 mg/kg/injection, schedule: Q01DX001 (ip), vehicle: saline) 98 % of control.

For the compound `ClC1=NC(Cl)(Cl)C(Cl)=C1Cl`, the T/C is 95 % of control (endpoint: mean survival time, dose: 6.25 mg/kg/injection, schedule: Q04DX002 (ip), vehicle: saline); 95 % of control (endpoint: mean survival time, dose: 12.5 mg/kg/injection, schedule: Q04DX002 (ip), vehicle: saline); 98 % of control (endpoint: mean survival time, dose: 25.0 mg/kg/injection, schedule: Q04DX002 (ip), vehicle: saline).

`CN(C)CC[CH2][Sn]([CH3])([CH3])[CH3]`: the T/C is 104 % of control (endpoint: mean survival time, dose: 3.12 mg/kg/injection, schedule: Q01DX009 (ip), vehicle: saline with Tween-80); 100 % of control (endpoint: mean survival time, dose: 6.25 mg/kg/injection, schedule: Q01DX009 (ip), vehicle: saline with Tween-80); 90 % of control (endpoint: mean survival time, dose: 12.5 mg/kg/injection, schedule: Q01DX009 (ip), vehicle: saline with Tween-80).

`O=C1CC2C3C=CC4C3CC2C14` (centres undefined): the T/C reads like this: (endpoint: mean survival time, dose: 75.0 mg/kg/injection, schedule: Q01DX001 (ip), vehicle: saline with Tween-80) 97 % of control; (endpoint: mean survival time, dose: 150.0 mg/kg/injection, schedule: Q01DX001 (ip), vehicle: saline with Tween-80) 101 % of control.

On to `Nc1ncnc(N2C(=S)OC3C(O)C(CO)OC32)c1N` (centres undefined), for which the T/C runs as follows: (endpoint: mean survival time, dose: 12.5 mg/kg/injection, schedule: Q01DX005 (ip), vehicle: water) 92 % of control; (endpoint: mean survival time, dose: 25.0 mg/kg/injection, schedule: Q01DX005 (ip), vehicle: water) 88 % of control; (endpoint: mean survival time, dose: 50.0 mg/kg/injection, schedule: Q01DX005 (ip), vehicle: water) 95 % of control; (endpoint: mean survival time, dose: 100.0 mg/kg/injection, schedule: Q01DX005 (ip), vehicle: water) 95 % of control; (endpoint: mean survival time, dose: 200.0 mg/kg/injection, schedule: Q01DX005 (ip), vehicle: water) 90 % of control.

As for `O=C1NCC2(CCN(Cc3ccccc3)CC2)N1c1ccccc1`, the T/C is 93 % of control under setting [9], 89 % of control under setting [7] and 89 % of control under setting [8].

As to `[O-][N+](=C(c1ccccc1)c1ccccc1)c1ccccc1`, the T/C (endpoint: mean survival time, dose: 75.0 mg/kg/injection, schedule: Q01DX009 (ip), vehicle: saline with Tween-80) was 96 % of control; the T/C (endpoint: mean survival time, dose: 150.0 mg/kg/injection, schedule: Q01DX009 (ip), vehicle: saline with Tween-80) is 94 % of control; the T/C (endpoint: mean survival time, dose: 300.0 mg/kg/injection, schedule: Q01DX009 (ip), vehicle: saline with Tween-80) is 94 % of control.

In the case of `O=P(O)(O)OCC(O)CCl` (centres undefined), the T/C by setting is: under setting [2], 96 % of control; (endpoint: mean survival time, dose: 100.0 mg/kg/injection, schedule: Q04DX003 (ip), vehicle: saline) 100 % of control; (endpoint: mean survival time, dose: 200.0 mg/kg/injection, schedule: Q01DX009 (ip), vehicle: saline) 92 % of control; (endpoint: mean survival time, dose: 200.0 mg/kg/injection, schedule: Q04DX003 (ip), vehicle: saline) 91 % of control; (endpoint: mean survival time, dose: 400.0 mg/kg/injection, schedule: Q04DX003 (ip), vehicle: saline) 103 % of control.

Turning to `NCCNCCNCCNCCN` (tested in a mixture with another compound), the T/C reads like this: under setting [1], 104 % of control; under setting [2], 111 % of control; under setting [9], 110 % of control; under setting [7], 105 % of control.

With `Cc1ccc(NC(=O)c2cccc(Cl)c2)c(C)c1`, the T/C under setting [3] was 100 % of control; the T/C under setting [9] is 96 % of control; the T/C under setting [4] was 94 % of control; the T/C under setting [7] was 100 % of control; the T/C (endpoint: mean survival time, dose: 400.0 mg/kg/injection, schedule: Q01DX009 (ip), vehicle: saline with Tween-80) is 96 % of control; the T/C under setting [8] is 93 % of control.

`N#Cc1c(-c2ccccc2)c(-c2ccccc2)nn(CC(=O)O)c1=O`: the T/C is 105 % of control (endpoint: median survival time, dose: 25.0 mg/kg/injection, schedule: Q01DX005 (ip), vehicle: distilled water + Tween-80); 90 % of control (endpoint: median survival time, dose: 50.0 mg/kg/injection, schedule: Q01DX005 (ip), vehicle: distilled water + Tween-80); 95 % of control (endpoint: median survival time, dose: 100.0 mg/kg/injection, schedule: Q01DX005 (ip), vehicle: distilled water + Tween-80); 92 % of control (endpoint: median survival time, dose: 200.0 mg/kg/injection, schedule: Q01DX005 (ip), vehicle: distilled water + Tween-80).

The record behind these values is PubChem BioAssay AID256 (DTP/NCI, 2004).
